These results are taken from US8962641B2, “Pyrimidine-substituted pyrrolidine derivatives, pharmaceutical compositions and uses thereof” (Boehringer Ingelheim International GmbH, priority 2013, dated 2015).

The assay concerns the target human ACC2 (Homo sapiens (Human), UniProt O00763). As to the kind of experiment: ACC2 assay (spectrophotometric 384 well assay, NADH-linked kinetic method). The note with it: hACC2 construct lacking 128 N-terminal amino acids; coupled lactate dehydrogenase/pyruvate kinase reaction, 340 nm, 25° C. The assay is classed as biochemical. A digest of the protocol:
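Baculovirus/insect-cell human ACC2, anion-exchange purified; ADP formation coupled to pyruvate kinase/lactate dehydrogenase, NADH loss followed at 340 nm, 25° C, 15 min. Final 200 μM NADH and acetyl-CoA, 500 uM ATP; vehicle and no-acetyl-CoA wells set 100% and 0%.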

Sequence of human ACC2 (O00763 129-2458): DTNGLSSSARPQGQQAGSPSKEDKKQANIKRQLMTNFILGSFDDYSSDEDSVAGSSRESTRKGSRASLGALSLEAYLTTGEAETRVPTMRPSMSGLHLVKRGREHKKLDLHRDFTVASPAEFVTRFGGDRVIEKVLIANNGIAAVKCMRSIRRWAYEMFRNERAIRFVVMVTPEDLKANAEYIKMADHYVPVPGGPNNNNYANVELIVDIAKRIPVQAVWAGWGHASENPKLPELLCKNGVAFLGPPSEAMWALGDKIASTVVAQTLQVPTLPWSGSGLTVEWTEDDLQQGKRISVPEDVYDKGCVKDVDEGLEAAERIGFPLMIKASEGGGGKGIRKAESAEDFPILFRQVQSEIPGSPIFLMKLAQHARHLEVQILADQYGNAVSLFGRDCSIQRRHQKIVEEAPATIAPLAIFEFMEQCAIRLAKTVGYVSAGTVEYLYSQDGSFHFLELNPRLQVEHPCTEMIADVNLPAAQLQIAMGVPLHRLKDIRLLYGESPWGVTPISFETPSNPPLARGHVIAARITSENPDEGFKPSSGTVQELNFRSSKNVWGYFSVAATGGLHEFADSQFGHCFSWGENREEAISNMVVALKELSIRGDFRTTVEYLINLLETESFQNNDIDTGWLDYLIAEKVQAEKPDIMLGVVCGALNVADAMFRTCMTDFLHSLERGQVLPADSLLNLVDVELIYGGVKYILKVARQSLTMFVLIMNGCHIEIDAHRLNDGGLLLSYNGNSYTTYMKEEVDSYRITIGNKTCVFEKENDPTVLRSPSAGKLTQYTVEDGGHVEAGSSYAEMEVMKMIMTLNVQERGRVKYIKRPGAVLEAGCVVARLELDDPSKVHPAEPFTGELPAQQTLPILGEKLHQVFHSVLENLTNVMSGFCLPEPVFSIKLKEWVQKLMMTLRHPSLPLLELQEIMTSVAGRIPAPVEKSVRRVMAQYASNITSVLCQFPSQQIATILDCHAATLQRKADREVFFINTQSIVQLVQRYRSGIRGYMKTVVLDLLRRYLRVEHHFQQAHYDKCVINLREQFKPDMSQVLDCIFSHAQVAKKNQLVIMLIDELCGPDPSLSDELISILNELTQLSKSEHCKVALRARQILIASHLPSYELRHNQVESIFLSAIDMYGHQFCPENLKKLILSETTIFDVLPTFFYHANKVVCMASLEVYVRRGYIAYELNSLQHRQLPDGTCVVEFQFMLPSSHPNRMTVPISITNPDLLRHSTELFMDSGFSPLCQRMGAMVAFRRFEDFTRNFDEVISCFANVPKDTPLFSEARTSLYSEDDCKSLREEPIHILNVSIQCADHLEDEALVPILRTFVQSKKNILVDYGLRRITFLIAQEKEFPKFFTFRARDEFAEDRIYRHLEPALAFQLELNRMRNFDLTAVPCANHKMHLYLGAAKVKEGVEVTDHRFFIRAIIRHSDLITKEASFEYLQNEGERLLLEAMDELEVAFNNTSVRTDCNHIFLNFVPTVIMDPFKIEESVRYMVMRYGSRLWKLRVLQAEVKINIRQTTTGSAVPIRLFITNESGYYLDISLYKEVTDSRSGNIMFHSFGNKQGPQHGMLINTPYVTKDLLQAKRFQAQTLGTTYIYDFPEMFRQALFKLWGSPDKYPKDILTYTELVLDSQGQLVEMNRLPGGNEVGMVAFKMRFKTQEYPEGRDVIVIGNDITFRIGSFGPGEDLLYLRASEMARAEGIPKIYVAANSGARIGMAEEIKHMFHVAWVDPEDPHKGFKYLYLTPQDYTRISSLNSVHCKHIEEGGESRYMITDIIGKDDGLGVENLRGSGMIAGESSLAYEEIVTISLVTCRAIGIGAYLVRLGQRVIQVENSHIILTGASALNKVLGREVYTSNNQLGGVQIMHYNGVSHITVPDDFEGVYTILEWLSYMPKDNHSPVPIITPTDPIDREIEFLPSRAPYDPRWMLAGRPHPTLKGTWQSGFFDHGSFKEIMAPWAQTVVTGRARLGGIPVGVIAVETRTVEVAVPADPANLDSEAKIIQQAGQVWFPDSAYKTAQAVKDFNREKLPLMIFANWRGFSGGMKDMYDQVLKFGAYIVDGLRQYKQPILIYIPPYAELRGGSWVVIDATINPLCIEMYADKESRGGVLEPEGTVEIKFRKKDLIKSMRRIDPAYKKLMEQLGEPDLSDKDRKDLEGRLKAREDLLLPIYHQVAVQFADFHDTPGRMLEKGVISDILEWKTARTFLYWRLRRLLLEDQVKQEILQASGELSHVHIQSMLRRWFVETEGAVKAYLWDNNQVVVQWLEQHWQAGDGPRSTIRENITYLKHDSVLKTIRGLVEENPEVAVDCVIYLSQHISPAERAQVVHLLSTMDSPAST

Consider `CC(=O)N[C@@H](C)c1ccc(O[C@@H]2CCN(c3ccnc(N4[C@H](C)COC[C@@H]4C)n3)C2)cc1` [Example 8.90], for which the IC50 is 364 nM. `CC(=O)N[C@@H](C)c1ccc(O[C@@H]2CCN(c3nc(N4CCCC4C)ncc3Cl)C2)cc1` (stereo partly shown) [Example 8.154]: the IC50 was found to be 103 nM. Consider `CC(=O)N[C@@H](C)c1ccc(O[C@@H]2CCN(c3cnc(NC4CCC4)nc3)C2)cc1` [Example 1.1, N—((S)-1-(4-((R)-1-(2-(cyclobutylamino)pyrimidin-5-yl)pyrrolidin-3-yloxy)phenyl)ethyl)acetamide], for which it took 489 nM to reach half-maximal inhibition (IC50).

With `C[C@H](NC(=O)N1CCOCC1)c1ccc(OC2CCN(c3ccnc(N4CCOCC4)n3)C2)cc1` (stereo partly shown) [Example 3.6], the IC50 was 605 nM. `CCN(CC)c1ncnc(N2CC[C@@H](Oc3ccc([C@H](C)NC(C)=O)cc3)C2)c1C` [Example 8.100] returned a 50% inhibitory concentration (IC50) of 180 nM. This IC50 is about 3.4-fold lower than that of the compound before. Turning to `CC(=O)N[C@@H](C)c1ccc(O[C@@H]2CCN(c3nc(N4CCCCC4)ncc3F)C2)cc1` [Example 8.8], the IC50 came to 45 nM.

In the case of `CC(=O)N[C@@H](C)c1ccc(O[C@@H]2CCN(c3ncnc(N4CCCC4(C)C)c3F)C2)cc1` [Example 8.250], the midpoint of inhibition, the IC50, lay at 358 nM. For the compound `CC(=O)N[C@@H](C)c1ccc(O[C@@H]2CCN(c3nc(N(C)CCC#N)ncc3Cl)C2)cc1` [Example 8.131], half-maximal inhibition (IC50) was put at 461 nM.

Turning to `CC(=O)N[C@@H](C)c1ccc(O[C@@H]2CCN(c3ncnc(N4CC[C@@H](F)C4)c3F)C2)cc1` [Example 8.287], inhibition was half-maximal at 455 nM (IC50). The value for `CC(=O)N[C@@H](C)c1ccc(O[C@@H]2CCN(c3ncnc(OCC(C)(F)F)c3F)C2)cc1` [Example 7.33] was 86 nM. The value for `CC(=O)N[C@@H](C)c1ccc(O[C@@H]2CCN(c3ncnc(OCC(C)(F)F)c3Cl)C2)cc1` [Example 7.39] was 60 nM.

`CC(=O)N[C@@H](C)c1ccc(O[C@@H]2CCN(c3ccnc(N4CCC5(CC5)C4)n3)C2)cc1` [Example 8.76] came in with an IC50 of 155 nM.

For the compound `CCN(C)c1ncc(Cl)c(N2CC[C@@H](Oc3ccc([C@H](C)NC(C)=O)cc3)C2)n1` [Example 8.56], the midpoint of inhibition, the IC50, lay at 60 nM. For the compound `CC(=O)N[C@@H](C)c1ccc(O[C@@H]2CCN(c3ncnc(C4CC4)c3Cl)C2)cc1` [Example 9.2], the IC50 was 987 nM. `CC(=O)N[C@@H](C)c1ccc(O[C@@H]2CCN(c3ncnc(NCC4CCC4)c3Cl)C2)cc1` [Example 8.311]: the IC50 amounted to 62 nM.

`COC(C)(C)COc1ncnc(N2CC[C@@H](Oc3ccc([C@H](C)NC(C)=O)cc3)C2)c1F` [Example 7.46] showed an IC50 of 595 nM. Take `CC(=O)N[C@@H](C)c1ccc(O[C@@H]2CCN(c3ncnc(N(C)C)c3F)C2)cc1` [Example 8.93]: the IC50 came out at 440 nM. Take `CCCN(C)c1ccnc(N2CC[C@@H](Oc3ccc([C@H](C)NC(C)=O)cc3)C2)n1` [Example 6.22]: the midpoint of inhibition, the IC50, lay at 1350 nM.

Compound `CC(=O)N[C@@H](C)c1ccc(O[C@@H]2CCN(c3nc(N4CCCC(F)(F)C4)ncc3Cl)C2)cc1` [Example 8.189] returned an IC50 of 319 nM. Compared with the last compound, the IC50 is about 4.2-fold lower.

In the case of `CCCNc1ncnc(N2CC[C@@H](Oc3ccc([C@H](C)NC(=O)c4sc(NC(=O)CC)nc4C)cc3)C2)c1OC` [Example 8.320], inhibition was half-maximal at 742 nM (IC50). This IC50 lies about 2.3-fold higher than the previous one. The value for `CC(=O)N[C@@H](C)c1ccc(O[C@@H]2CCN(c3ncnc(N(C)CC(F)F)c3F)C2)cc1` [Example 8.132] was 206 nM; that for `CCN(CC)c1nccc(N2CC[C@@H](Oc3ccc([C@H](C)NC(C)=O)cc3)C2)n1` [Example 8.24] was 174 nM. As for `CCN(C)c1ccnc(N2CC[C@@H](Oc3ccc([C@H](C)NC(C)=O)cc3)C2)n1` [Example 6.11], 244 nM corresponded to half-maximal inhibition (IC50). `CC(=O)N[C@@H](C)c1ccc(O[C@@H]2CCN(c3ncc(OCC4CC4)cn3)C2)cc1` [Example 6.7] gave an IC50 of 1080 nM. Consider `CCCNc1ncc(F)c(N2CC[C@@H](Oc3ccc([C@H](C)NC(C)=O)cc3)C2)n1` [Example 8.302], for which the IC50 amounted to 202 nM. Compared with the last compound, the IC50 is about 5.3-fold lower.

Regarding `CC(=O)N[C@@H](C)c1ccc(O[C@@H]2CCN(c3nc(N(C)C4CCCC4)ncc3F)C2)cc1` [Example 8.11], the IC50 was 58 nM.

On to `CC(=O)N[C@@H](C)c1ccc(O[C@@H]2CCN(c3ncnc(N4CC(F)(F)C(F)(F)C4)c3F)C2)cc1` [Example 8.231], for which the concentration for half-maximal inhibition (IC50) stood at 127 nM. Take `CC(=O)N[C@@H](C)c1ccc(O[C@@H]2CCN(c3ccnc(N4CC5(CCC5)C4)n3)C2)cc1` [Example 8.75]: it took 358 nM to reach half-maximal inhibition (IC50). The value for `CC(=O)N[C@@H](C)c1ccc(O[C@@H]2CCN(c3nc(N4CCc5nocc5C4)ncc3Cl)C2)cc1` [Example 8.175] was 1380 nM; that for `CC(=O)N[C@@H](C)c1ccc(O[C@@H]2CCN(c3nc(N4CC[C@H](F)C4)ncc3Cl)C2)cc1` [Example 8.241] was 594 nM. In the case of `CC(=O)N[C@@H](C)c1ccc(O[C@@H]2CCN(c3ccnc(N(C)CC(C)C)n3)C2)cc1` [Example 8.171] it was 175 nM; in that of `CC(=O)N[C@@H](C)c1ccc(O[C@@H]2CCN(c3nc(NCC4CC4)ncc3F)C2)cc1` [Example 8.303], 301 nM. With `CC(=O)N[C@@H](C)c1ccc(O[C@@H]2CCN(c3ncnc(N4CCCC4C)c3F)C2)cc1` (stereo partly shown) [Example 8.233], the IC50 came to 153 nM. In the case of `CCN(C)c1nccc(N2CCC(Oc3ccc([C@H](C)NC(=O)c4sc(NC(C)=O)nc4C)cc3)C2)n1` (stereo partly shown) [Example 2.8], 245 nM corresponded to half-maximal inhibition (IC50). `C[C@H](NC(=O)C(F)F)c1ccc(OC2CCN(c3ccnc(N(C)CC(F)F)n3)C2)cc1` (stereo partly shown) [Example 5.2]: the midpoint of inhibition, the IC50, lay at 49 nM. The compound `CCC(=O)Nc1nc(C)c(C(=O)N[C@@H](C)c2ccc(O[C@@H]3CCN(c4ncnc(OCC5CC5)c4OC)C3)cc2)s1` [Example 7.63] yielded an IC50 of 112 nM. In the case of `CCN(C)c1ncc(F)c(N2CC[C@@H](Oc3ccc([C@H](C)NC(C)=O)cc3)C2)n1` [Example 8.31] it was 95 nM; in that of `CC(=O)N[C@@H](C)c1ccc(O[C@@H]2CCN(c3ncnc(NCC4(O)CCC4)c3Cl)C2)cc1` [Example 8.299], 70 nM.

The compound `CC(=O)N[C@@H](C)c1ccc(O[C@@H]2CCN(c3nc(N4CCC(C)C4)ncc3F)C2)cc1` (stereo partly shown) [Example 8.70] yielded an IC50 of 59 nM.

Regarding `CCOC(=O)N[C@@H](C)c1ccc(OC2CCN(c3ccnc(N4CCOCC4)n3)C2)cc1` (stereo partly shown) [Example 4.3], the IC50 amounted to 494 nM. For the compound `CC(=O)N[C@@H](C)c1ccc(O[C@@H]2CCN(c3nc(N4CCC(C)(O)CC4)ncc3F)C2)cc1` [Example 8.273], the IC50 stood at 1350 nM. Compound `CC(=O)N[C@@H](C)c1ccc(O[C@@H]2CCN(c3nccc(N4CC5(CCC5)C4)n3)C2)cc1` [Example 8.80] registered a concentration for half-maximal inhibition (IC50) of 955 nM.

`CC(=O)N[C@@H](C)c1ccc(O[C@@H]2CCN(c3ncnc(N4C[C@@H]5C[C@H]4CO5)c3F)C2)cc1` [Example 8.147] gave an IC50 of 2320 nM.

The compound `CC(=O)N[C@@H](C)c1ccc(O[C@@H]2CCN(c3ccnc(N4CC=CC4)n3)C2)cc1` [Example 8.196] came in with an IC50 of 277 nM. Compound `COc1c(OCC2CC2)ncnc1N1CC[C@@H](Oc2ccc([C@H](C)NC(=O)C3CC(F)C3)cc2)C1` (stereo partly shown) [Example 2.30] registered an IC50 of 528 nM. The value for `CC(=O)N[C@@H](C)c1ccc(O[C@@H]2CCN(c3ncnc(N4CCC[C@H]4C)c3F)C2)cc1` [Example 8.286] was 165 nM.

What is called IC50 is the concentration that inhibits the measured activity by half. Lower therefore signals inhibition by little substance.
